The source of these data is PMC3711097 (Molecular bioSystems, 2013).

The assay concerns KedF. In words: continuous spectrophotometric assay with periodate, […] nm. Type of assay: biochemical, Streptoalloteichus sp. ATCC 53650. The settings on record: 50 mM phosphate pH 8.0, 25 °C, 3 mM sodium periodate.

In the case of `c1ccc([C@@H]2CO2)cc1` [(R)-styrene oxide], the Km (in general, the concentration of substrate that gives half-maximal velocity) (9.6 μM KedF) was 3500 ± 640 µM.

Take `c1ccc([C@H]2CO2)cc1` [(S)-styrene oxide]: the Michaelis constant (Km) (4.0 μM KedF) stood at 910 ± 100 µM.
